Experimental data published in patent publication US20140309192A1, “MODULATORS OF THE G PROTEIN-COUPLED MAS RECEPTOR AND THE TREATMENT OF DISORDERS RELATED THERETO” (ARENA PHARMACEUTICALS, INC., priority 2011, published 2014).

Legend:
Male Sprague-Dawley rats = assay: Left kidney artery ischemia reperfusion injury model; format: in vivo, rat
Method: Rats were anesthetized with pentobarbital (70 mg/kg). Normal body temperature was maintained by placing the animals on heating pads until recovery from anesthesia. Following a midline abdominal incision, the left renal pedicle was localized and the renal artery and vein were dissected. An atraumatic microvascular clamp was placed, and the left renal artery was occluded for 45 minutes. After inspection for signs of ischemia, the wound was covered with PBS soaked cotton. After release of the clamp, restoration of blood-flow was inspected visually and the wound was closed with surgical staples and the animal was allowed to recover. 24 hours following the end of ischemia blood was collected and markers of kidney function, creatinine and blood urea nitrogen (BUN) were measured.
15 minutes prior to renal artery occlusion either vehicle (20% hydroxypropyl-β-cyclodextrin) or a loading dose of 6.26 mg/kg Mas inverse agonist (Compound 170) was administered i.v. followed by a i.v. maintenance dose of 1.64 mg/kg/hr lasting for 2 hours following removal of the renal artery clamp. A renoprotective positive control peptide, Atrial natriuretic peptide (ANP, 0.2 μg/kg/min), was administered by continuous i.v. infusion starting 15 minutes prior to renal artery occlusion and lasting for 2 hours following removal of the renal artery clamp, see FIG. 43 for protocol.

rat Mas receptor = molecular target: T1, rat Mas receptor (Rattus norvegicus, UniProt P12526); assay: cAMP Dynamic2 HTRF assay, HEK293 cells stably expressing rat Mas receptor; format: cell-based; settings: forskolin stimulated cAMP, means ± SEM, NR = No Response, read-out: Gi/cAMP IC50
T1 construct: expressed in transfected cells; host or cells: HEK293 (ATCC CRL-1573)
T1 sequence (P12526 1-324): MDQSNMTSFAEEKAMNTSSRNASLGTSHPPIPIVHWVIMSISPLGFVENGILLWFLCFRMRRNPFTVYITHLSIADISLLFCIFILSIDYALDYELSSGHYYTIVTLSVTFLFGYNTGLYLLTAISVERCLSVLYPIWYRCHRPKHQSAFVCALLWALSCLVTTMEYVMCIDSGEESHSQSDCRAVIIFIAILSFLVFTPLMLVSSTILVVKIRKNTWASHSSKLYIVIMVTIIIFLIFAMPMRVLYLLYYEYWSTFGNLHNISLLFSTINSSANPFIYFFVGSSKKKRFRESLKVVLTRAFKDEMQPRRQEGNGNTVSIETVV
Method: cAMP accumulation in HEK293 cells stably expressing human or rat Mas receptors was determined by the 384 well cAMP Dynamic2 Homogenous Time-Resolved Fluorescence (HTRF®) assay (CisBio Cat#62AM4PEB) following the manufacturer's protocol. Briefly, cells were plated at 30,000 or 1000 cells per well in 5 μL stimulation buffer (PBS containing 500 μM IBMX and 0.1% bovine serum albumin), 5 μL of Mas compounds diluted in PBS were added to each well and serial diluted cAMP standards were also added to corresponding wells at this step. For detecting […] activities, 10 μM forskolin was included with the compounds for a final concentration of 5 μM at the stimulation step. Following 1 h stimulation at room temperature, d2-labeled cAMP and anti-cAMP cryptate conjugate diluted in detection buffer (included in the kit) were added to cells sequentially at 5 μl per well. The plates were incubated further for 1 h at room temperature. Ratiometic measurements of fluorescence emission at 665 nm and 620 nm were obtained by Pherastar fluorometer (BMG Labtech) and cAMP levels in each well were calculated according to the standard curves on each plate. IC50 values were obtained by fitting data to a nonlinear curve-fitting program (GraphPad Software, Inc., La Jolla Calif.).

[1] = tested on: isolated perfused mouse hearts; assay: Ex vivo coronary flow, Langendorff perfused isolated mouse hearts; settings: 1 μM
Method: Coronary flow was measured in male Mas^−/− and Mas^+/+ mice, and in male Sprague-Dawley rats using Langendorff perfused isolated hearts. Freshly isolated hearts were placed on a Langendorff apparatus (Harvard Apparatus) and perfused at a constant pressure of 80 mmHg with a modified Krebs-Henseleit buffer solution (Sigma K3753) and aerated with 95% oxygen and 5% carbon dioxide, pH 7.35-7.4. The temperature was maintained at 37° C. by surrounding the heart with a water-heated glassware chamber. Coronary flow was measured using a flow measurement system (Harvard Apparatus) which included the transit time flow meter and a flow probe built into an adaptor block located at the perfusate inflow port. Data were recorded continuously using an ISOHEART data acquisition system (Harvard Apparatus). After a 20-min equilibration period, Mas compounds were added to the perfusion buffer reservoir at the desired concentration (agonist AR234960 at 1 μM, or inverse agonist AR244555 at 5 μM) and coronary flow was recorded for 10 min

[2] = 6.26 mg/kg loading + 1.64 mg/kg/hr i.v., 45 minutes occlusion, blood 24 hours after ischemia

NC(=O)[C@H](CO)NCc1ccc(C(=O)Nc2ccc(Cl)cc2N2CCN(CCC(F)(F)F)CC2)c(F)c1F [Compound 170, (S)-4-((1-Amino-3-hydroxy-1-oxopropan-2-ylamino)methyl)-N-(4-chloro-2-(4-(3,3,3-trifluoropropyl)piperazin-1-yl)phenyl)-2,3-difluorobenzamide]
kidney function as measured by blood creatinine (Male Sprague-Dawley rats; [2]): improves kidney function | kidney function as measured by blood urea nitrogen (BUN) (Male Sprague-Dawley rats; [2]): improves kidney function | degree of renal protection (Male Sprague-Dawley rats; compared with ANP 0.2 μg/kg/min): at the same activity compared to ANP

COc1cc([N+](=O)[O-])ccc1S(=O)(=O)N1CC(CN2CCN(c3ccccn3)CC2)C(c2cccc(F)c2)C1 (stereo not shown) [AR234960]
IC50 (rat Mas receptor): 1710 ± 11 nM | coronary flow, Mas knockout (Mas−/−) mouse hearts [1]: absent | coronary flow, Mas+/+ mouse hearts [1]: 64 % of baseline | coronary flow, wild type (Mas+/+) mouse hearts [1]: decreased coronary flow significantly
